In publication PMC6057649, “Development of NanoLuc-PEST expressing Leishmania mexicana as a new drug discovery tool for axenic- and intramacrophage-based assays” (PLoS Neglected Tropical Diseases, 2018):
Where two headings read alike, the source gives them in different places.

Columns and labels:
[1] = system: NanoLuc-PEST expressing L. mexicana axenic amastigotes; assay: microbe, parasite or virus in culture; format: cell-based; conditions: for viability at 2 µM / viability at 10 µM / Relative Bioluminescence (%): 72 hours, relative to DMSO only control, n = 4; for viability at 2 µM / viability at 10 µM: read-out: Relative Bioluminescence (%); for EC90: read-out: EC90 against amastigotes, Axenic
MRC5 = system: MRC5; set-up: method as in MMV Pathogen Box website; conditions: ref MMV Pathogen Box website; cited from earlier work
[2] = system: L. mexicana NanoLuc-PEST intramacrophage amastigotes; assay: Bioluminescence-based intramacrophage assay in THP-1 infection model; format: cell-based; conditions: for EC50: read-out: EC50 against amastigotes, Intramacrophage; for EC90: read-out: EC90 against amastigotes, Intramacrophage
[3] = system: L. donovani intramacrophage amastigotes; conditions: value in brackets ref 49–51, read-out: Previous EC50, intramacrophage amastigotes; cited from earlier work
[4] = system: L. donovani axenic amastigotes; conditions: value in brackets ref 49–51, read-out: Previous EC50, axenic amastigotes; cited from earlier work
[5] = system: NanoLuc-PEST expressing L. mexicana axenic amastigotes; assay: Fluorescence-based (AlamarBlue) viability assay, NanoLuc-PEST axenic amastigotes; conditions: Leishmania mexicana, 72 h
[6] = system: Leishmania spp. intramacrophage amastigotes; conditions: value in brackets ref 55, read-out: Previous EC50, intramacrophage amastigotes; cited from earlier work
[7] = system: wild-type L. mexicana axenic amastigotes; assay: Fluorescence-based (AlamarBlue) viability assay, parental axenic amastigotes; conditions: Leishmania mexicana, 72 h
[8] = Leishmania mexicana, 2 µM compound
[9] = Leishmania mexicana, 10 µM compound
[10] = THP-1 infection model, bioluminescence

| Compound | Relative Bioluminescence (%) ([1]; 2 µM compound) | Relative Bioluminescence (%) ([1]; 10 µM compound) | other results |
| --- | --- | --- | --- |
| COc1nc2ccc(Br)cc2cc1[C@@H](c1ccccc1)[C@@](O)(CCN(C)C)c1cccc2ccccc12 [MMV689758, Bedaquiline, reference compound] | – | – | viability at 2 µM [1, 8]: 94.9%; viability at 10 µM [1, 9]: 45.4% |
| COc1ccc(C2=NN(C3CCCCCC3)C(=O)[C@@H]3CC=CC[C@H]23)cc1OCCCCOc1ccc(-c2nn[nH]n2)cc1 [MMV690027] | 96.72 | 33.47 | – |
| COc1ccc(C2=NN(C3CCCCCC3)C(=O)C2(C)C)cc1OCCCCOc1ccc(-c2nn[nH]n2)cc1 [MMV690028] | 55.46 | 1.50 | – |
| COc1ccc(Oc2ccc([C@@H](C)N(C)c3ncc4c(N)nc(N)nc4n3)cc2)cc1 [MMV690102] | -5.29 | -1.34 | EC50 ([1]; read-out: EC50 against amastigotes, Axenic): 60 nM; EC90 [1]: 123 nM; CC50 (MRC5): 5400 nM; EC50 [2, 10]: 107 nM; EC90 [2, 10]: 160 nM; EC50 [3]: 100 nM; EC50 [4]: 40 nM |
| C[C@H](c1ccc2c(c1)CCCC2)N(C)c1ncc2c(N)nc(N)nc2n1 [MMV690103] | 59.86 | 0.48 | – |
| CCc1ccc(C(NCc2nc(N)nc(N(C)C)n2)C(C)C)cc1 (centres unmarked) [MMV1019989] | 59.90 | 45.92 | – |
| O=C(Nc1nc(-c2ccccn2)cs1)C1CC1c1ccccc1F (centres unmarked) [MMV1028806] | 58.01 | -0.60 | – |
| CNC(=O)CNc1nc(-c2ccccn2)nc2scc(-c3ccccc3)c12 [MMV1029203] | 83.99 | 52.70 | – |
| CCCn1c(NC(=O)c2ccc3ccccc3n2)nc2ccccc21 [MMV1030799] | 37.62 | -5.56 | – |
| CCNC(=O)C(C)Nc1nc(-c2cccnc2)nc2sc(C)c(C)c12 (centres unmarked) [MMV1037162] | 83.26 | 85.96 | – |
| Cc1ccc(-c2nc(CN(Cc3ccccn3)C(C)C)cs2)o1 [MMV1088520] | 70.72 | -3.27 | – |
| COc1cccn2c(C(=O)N3CCCCC3)c(C(F)(F)F)nc12 [MMV1110498] | 66.34 | 77.35 | – |
| Cc1cc(OCC(=O)Nc2ccc(C(C)C)cc2)n(C)c(=O)c1C#N [MMV1198433] | 82.52 | 91.16 | – |
| CCOC(=O)c1noc(N)c1-c1ccccc1 [MMV1236379] | 77.18 | 52.39 | – |
| CCCCCCCCCCCCCCCCOP(=O)([O-])OCC[N+](C)(C)C [Miltefosine, reference compound] | – | – | EC50 [5]: 1990 nM; EC50 ([1]; Leishmania mexicana, 72 h, read-out: EC50): 2190 nM; EC50 ([1]; Leishmania mexicana, read-out: EC50 against amastigotes, Axenic): 1990 nM; viability at 2 µM [1, 8]: 43%; viability at 10 µM [1, 9]: 11.5%; EC90 ([1]; Leishmania mexicana): 19800 nM; EC50 [6]: 15700 nM; EC50 ([2]; Leishmania mexicana, THP-1): 10900 nM; EC90 ([2]; Leishmania mexicana, THP-1): 37300 nM; EC50 [7]: 1110 nM |
| Levofloxacin (-)-ofloxacin [MMV687798, reference compound] | 83.03 | 74.50 | – |
